# According to US20100261679A1 (priority 2007, published 2010):
# Assays:
# cKIT = molecular target: T1, cKIT (Homo sapiens, UniProt P10721); assay: Inhibition of cKIT kinase in an in vitro biochemical assay (alphascreen); details: tested at about 1 μM
# T1 construct: The kinase domain of cKIT was assayed in 50 mM Hepes; purchased Upstate 14-559
# Procedure: (§1) The IC50 values for the inhibition of RTKs were determined in the alphascreen format measuring the inhibition by compound of phosphate transfer to a substrate by the respective enzyme. Briefly, the respective RTK domain purchased as human recombinant protein (cKIT Upstate #14-559, PDGFRb Invitrogen #P3082) were incubated with serial dilutions of compound in the presence of substrate and ATP concentrations within 3 times the Km of the enzyme.
# (§2) The kinase domain of cKIT was assayed in 50 mM Hepes, pH=7.5, 5 mM MgCl2, 10 mM MnCl2, 1 mM DTT, 0.1% BSA with 0.06 uM biotinylated peptide substrate (GGLFDDPSYVNVQNL-NH2) and 15 μM ATP (ATP KM apparent =15 μM). The kinase domain of PDGFRβ was assayed in 50 mM Hepes, pH=7.5, 20 mM MgCl2, 1 mM DTT, 0.1% BSA with 0.1 μM biotinylated peptide substrate (GGLFDDPSYVNVQNL-NH2) and 10 μM ATP (ATP KM apparent=25 μM). Reactions were incubated at room temperature for 3 to 4 hr and stopped with buffer (20 mM EDTA, 0.01% Tween-20 for both PDGFRβ and cKIT). Alphascreen PY20 beads were added to the stopped cKIT reactions and PY20 Ab/Protein A Alphascreen beads were added to the PDGFRβ stopped reactions. Both reactions were incubated overnight and read on the Alphascreen reader. The concentration of compound for 50% inhibition (IC50) was calculated employing non-linear regression using XL-Fit data analysis software. As a control compound, staurosporine is run in every assay and a Z′>0.5 is required to validate results.
# PDGFRb = molecular target: T2, PDGFRb (Homo sapiens, UniProt P09619); assay: Inhibition of PDGFRb kinase in an in vitro biochemical assay (alphascreen); details: tested at about 1 μM; read-out: PDGFR % inhibition at 1 μM
# T2 construct: The kinase domain of PDGFRβ was assayed in 50 mM Hepes; purchased Invitrogen P3082
# Procedure: as §1, §2
# [1] = molecular target: T3, cytoplasmic domain of the human CSF-1R (Homo sapiens, UniProt P07333); assay: In vitro kinase assay for CSF-1R (AlphaScreen); format: biochemical; details: tested at about 1 μM
# T3 construct: Recombinant protein corresponding to the cytoplasmic domain of the human CSF-1R; purchased Invitrogen Corporation, Carlsbad, Calif; U.S.A. PV3249
# T3 sequence (P07333 539-972 limits assumed): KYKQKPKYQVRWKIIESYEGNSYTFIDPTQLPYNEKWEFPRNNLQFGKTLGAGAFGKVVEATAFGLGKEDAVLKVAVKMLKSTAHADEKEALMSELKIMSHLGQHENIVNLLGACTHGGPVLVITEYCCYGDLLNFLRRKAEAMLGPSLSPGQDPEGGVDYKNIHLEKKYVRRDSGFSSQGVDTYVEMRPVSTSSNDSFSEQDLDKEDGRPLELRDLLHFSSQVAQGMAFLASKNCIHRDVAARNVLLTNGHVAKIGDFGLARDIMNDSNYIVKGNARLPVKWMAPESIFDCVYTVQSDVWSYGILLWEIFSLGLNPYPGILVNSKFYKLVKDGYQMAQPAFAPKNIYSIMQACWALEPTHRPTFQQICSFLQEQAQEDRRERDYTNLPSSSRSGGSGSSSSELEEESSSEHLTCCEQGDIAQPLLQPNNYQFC
# Procedure: The kinase activity of various protein tyrosine kinases can be measured by providing ATP and a suitable peptide or protein tyrosine-containing substrate, and assaying the transfer of phosphate moiety to the tyrosine residue. Recombinant protein corresponding to the cytoplasmic domain of the human CSF-1R was purchased from Invitrogen Corporation, Carlsbad, Calif. U.S.A. (#PV3249). For each assay, test compounds were serially diluted, starting at 25 μM with 3 fold dilutions, in DMSO in 384 well plates then mixed with an appropriate kinase reaction buffer consisting of 50 mM Hepes, 5 mM MgCl2, 10 mM MnCl2, 0.1% BSA, pH 7.5, 1.0 mM dithiothreitol, 0.01% Tween 80 plus […]. Kinase protein and an appropriate biotinylated peptide substrate at 50 nM were added to give a final volume of 20 μL, reactions were incubated for 2 hours at room temperature and stopped by the addition of 10 μL of 45 mM EDTA, 50 mM Hepes pH 7.5. Added to the stopped reaction mix was 30 μL of PT66 Alphascreen beads (Perkin Elmer, Boston, Mass., U.S.A.). The reaction was incubated overnight and read on the Envision (Perkin Elmer). Phosphorylated peptide product was measured with the AlphaScreen system (Perkin Elmer) using acceptor beads coated with anti-phosphotyrosine antibody PT66 and donor beads coated with streptavidin that emit a fluorescent signal at the 520-620 nm emission wave length if in close proximity. The concentration of each compound for 50% inhibition (IC50) was calculated by non-linear regression using XL Fit data analysis software.
# CSF-1R kinase was assayed in 50 mM Hepes pH 7.0, 5 mM MgCl2, 10 mM MnCl2, 1 mM DTT, 1 mg/mL BSA, 1.0 μM ATP, and 0.05 μM biotin-GGGGRPRAATF-NH2 (SEQ ID NO:2) peptide substrate. CSF-1R kinase was added at final concentration of 4 nM.
# T2 sequence (P09619 600-962 limits assumed): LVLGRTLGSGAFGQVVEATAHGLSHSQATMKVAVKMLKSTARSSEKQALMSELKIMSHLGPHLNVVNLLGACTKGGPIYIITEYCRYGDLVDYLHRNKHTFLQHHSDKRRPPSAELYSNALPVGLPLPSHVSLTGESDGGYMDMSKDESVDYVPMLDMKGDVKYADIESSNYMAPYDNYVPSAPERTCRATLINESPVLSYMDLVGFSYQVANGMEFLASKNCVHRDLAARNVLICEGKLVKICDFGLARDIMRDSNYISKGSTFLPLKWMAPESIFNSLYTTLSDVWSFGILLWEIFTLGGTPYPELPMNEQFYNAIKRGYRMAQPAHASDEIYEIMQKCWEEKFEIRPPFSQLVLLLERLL
# T1 sequence (P10721 589-937 limits assumed): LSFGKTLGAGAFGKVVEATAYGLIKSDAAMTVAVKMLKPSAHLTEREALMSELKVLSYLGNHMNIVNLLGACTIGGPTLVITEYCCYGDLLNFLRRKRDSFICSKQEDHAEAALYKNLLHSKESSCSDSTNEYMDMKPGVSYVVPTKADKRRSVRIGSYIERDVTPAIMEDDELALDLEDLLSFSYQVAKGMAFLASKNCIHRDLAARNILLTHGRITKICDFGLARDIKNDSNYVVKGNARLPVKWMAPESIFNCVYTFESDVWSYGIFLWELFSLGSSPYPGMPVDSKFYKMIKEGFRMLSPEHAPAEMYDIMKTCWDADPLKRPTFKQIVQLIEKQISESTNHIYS
Structure (SMILES),inhibition at 1 µM (cKIT),inhibition at 1 µM (PDGFRb),inhibition at 1 µM [1]
"CC[C@H](C)[C@@H](CO)Nc1ncc2cc(Oc3ccnc(C(=O)NC)c3)ccc2n1 [Cmpd 14, 4-(2-((2S,3S)-1-hydroxy-3-methylpentan-2-ylamino)quinazolin-6-yloxy)-N-methylpicolinamide]",19%,15%,99%
"CNC(=O)c1cc(Oc2ccc3nc(N[C@@H](C)C4CCCCC4)ncc3c2)ccn1 [Cmpd 16, (S)-4-(2-(1-cyclohexylethylamino)quinazolin-6-yloxy)-N-methylpicolinamide]",58%,26%,100%
"CNC(=O)c1cc(Oc2ccc3nc(N[C@@H](CO)C4CCCCC4)ncc3c2)ccn1 [Cmpd 17, (R)-4-(2-(1-cyclohexyl-2-hydroxyethylamino)quinazolin-6-yloxy)-N-methylpicolinamide]",61%,38%,100%
"CNC(=O)c1cc(Oc2ccc3nc(N[C@H](CO)C4CCCCC4)ncc3c2)ccn1 [Cmpd 18, (S)-4-(2-(1-cyclohexyl-2-hydroxyethylamino)quinazolin-6-yloxy)-N-methylpicolinamide]",30%,31%,99%
"CNC(=O)c1cc(Oc2ccc3nc(N[C@@H]4c5ccccc5C[C@@H]4O)ncc3c2)ccn1 [Cmpd 19, 4-(2-((1R,2S)-2-hydroxy-2,3-dihydro-1H-inden-1-ylamino)quinazolin-6-yloxy)-N-methylpicolinamide]",30%,3%,100%
"CNC(=O)c1cc(Oc2ccc3nc(N[C@H]4c5ccccc5C[C@H]4O)ncc3c2)ccn1 [Cmpd 20, 4-(2-((1S,2R)-2-hydroxy-2,3-dihydro-1H-inden-1-ylamino)quinazolin-6-yloxy)-N-methylpicolinamide]",60%,25%,100%
"Cn1cc(-c2cc(Oc3ccc4nc(NCC5CCCCC5)ncc4c3)ccn2)cn1 [Cmpd 21, N-(cyclohexylmethyl)-6-(2-(1-methyl-1H-pyrazol-4-yl)pyridin-4-yloxy)quinazolin-2-amine]",100%,91%,100%
"c1ccc(N2CCOCC2)c(Nc2ncc3cc(Oc4ccncc4)ccc3n2)c1 [Cmpd 28, N-(2-morpholinophenyl)-6-(pyridin-4-yloxy)quinazolin-2-amine]",8%,< 1%,52%
CNC(=O)c1cc(Oc2ccc3nc(N[C@@H]4CCCC[C@H]4O)ccc3c2)ccn1 [Example 1],51%,33%,100%
CNC(=O)c1cc(Oc2ccc3nc(N[C@H]4CCCC[C@@H]4O)ccc3c2)ccn1 [Example 2],21%,32%,100%
CNC(=O)c1cc(Oc2ccc3nc(N[C@@H](CO)C4CCCCC4)ccc3c2)ccn1 [Example 7],31%,16%,98%
CNC(=O)c1cc(Oc2ccc3nc(N[C@@H]4CCCC[C@H]4O)ncc3c2)ccn1 [Example 11],23%,21%,99%
CNC(=O)c1cc(Oc2ccc3nc(N[C@H]4CCCC[C@@H]4O)ncc3c2)ccn1 [Example 12],39%,39%,100%
CNC(=O)c1cc(Oc2ccc3nc(N[C@H](CO)Cc4ccccc4)ncc3c2)ccn1 [Example 13],28%,24%,88%
"CNC(=O)c1cc(Oc2ccc3nc(N[C@H](C)C4CCCCC4)ncc3c2)ccn1 [Example 15, (R)-4-(2-(1-cyclohexylethylamino)quinazolin-6-yloxy)-N-methylpicolinamide]",50%,26%,100%
"Nc1cc(Oc2ccc3nc(Nc4ccccc4N4CCOCC4)ncc3c2)ccn1 [Example 29, 6-(2-aminopyridin-4-yloxy)-N-(2-morpholinophenyl)quinazolin-2-amine]",9%,1%,90%

# The remaining lines, values ahead:
inhibition at 1 µM (cKIT),inhibition at 1 µM (PDGFRb),inhibition at 1 µM [1],Structure (SMILES)
8%,< 1%,67%,"CN(C)C(=O)c1cc(Oc2ccc3nc(Nc4ccccc4N4CCOCC4)ncc3c2)ccn1 [Example 31, N,N-dimethyl-4-(2-(2-morpholinophenylamino)quinazolin-6-yloxy)picolinamide]"
7%,< 1%,99%,"CC(=O)Nc1cc(Oc2ccc3nc(Nc4ccccc4N4CCOCC4)ncc3c2)ccn1 [Example 32, N-(4-(2-(2-morpholinophenylamino)quinazolin-6-yloxy)pyridin-2-yl)acetamide]"
14%,< 1%,84%,"NC(=O)c1cc(Oc2ccc3nc(Nc4ccccc4N4CCOCC4)ncc3c2)ccn1 [Example 33, 4-(2-(2-morpholinophenylamino)quinazolin-6-yloxy)picolinamide]"
14%,2%,80%,"CCNC(=O)c1cc(Oc2ccc3nc(Nc4ccccc4N4CCOCC4)ncc3c2)ccn1 [Example 34, N-ethyl-4-(2-(2-morpholinophenylamino)quinazolin-6-yloxy)picolinamide]"
7%,< 1%,71%,"CNC(=O)c1cc(Oc2ccc3nc(NCCN4CCOCC4)ncc3c2)ccn1 [Example 35, N-methyl-4-(2-(2-morpholinoethylamino)quinazolin-6-yloxy)picolinamide]"
16%,< 1%,99%,"CNC(=O)c1cc(Oc2ccc3nc(NCC4(N5CCOCC5)CCCCC4)ncc3c2)ccn1 [Example 37, N-methyl-4-(2-((1-morpholinocyclohexyl)methylamino)quinazolin-6-yloxy)picolinamide]"
92%,46%,99%,"CNC(=O)c1cc(Oc2ccc3nc(N[C@H](C)c4ccccc4)ncc3c2)ccn1 [Example 38, (R)-N-methyl-4-(2-(1-phenylethylamino)quinazolin-6-yloxy)picolinamide]"
10%,52%,99%,"CNC(=O)c1cc(Oc2ccc3nc(NCC4CCCCC4)ncc3c2)ccn1 [Example 39, 4-(2-(cyclohexylmethylamino)quinazolin-6-yloxy)-N-methylpicolinamide]"
